Laboratory results reported in paper PMC2656996, “Functional cell permeable motifs within medically relevant proteins” (Journal of Biotechnology, 2007).
Non-standard residues stand in square brackets, D forms with d. Residues, ends and D or L forms follow the SMILES beside them. N(NBD)Gly = O=C(O)CNc1ccc([N+](=O)[O-])c2nonc12

Assays:
[1] = system: HeLa cells; assay: Internalisation of NBD-labelled peptides, flow cytometry with dithionite quench; format: cell-based, human; conditions: NBD-labelled peptide 10, 40 and 160 μM, 2 h at 37 °C, DMEM 10% FCS, FACS geometric mean fluorescence, dithionite-only background subtracted, average of three independent experiments
Description: (§1) HeLa or RAW 264.7 cells were cultured at 37 °C, 10% CO2, in Dulbecco's modified Eagle's medium (DMEM) (Invitrogen), containing 10% foetal calf serum (FCS, Harlan), 100 U/ml penicillin and 100 μg/ml streptomycin. Quantification of internalisation of NBD-labelled peptides was carried out according to the procedure described by [Drin et al. (2001)]. Briefly, cells were seeded in six-well plates (5 × 10^5 cells/well) and treated with 0–160 μM of peptide for 2 h at 37 °C. Cells were washed twice in PBS, harvested using a solution of Versene (1:500) (Invitrogen) and re-suspended in 0.5 ml (final volume) of ice-cold PBS. Cells were analysed by flow cytometry using a Becton Dickinson FACS Scan instrument and the geometric mean of fluorescence intensity was considered to represent the amount of cell-associated peptide. Following flow cytometry, 5 μl of freshly prepared dithionite stock solution (1 M Na2S2O4 in 1 M Tris–HCl (pH 10)) was added to cells maintained at 4 °C for 5 min and analysed again with flow cytometry to measure residual fluorescence. Fluorescence from cells treated with dithionite only was subtracted from the fluorescence of cell-associated or internalised peptides to infer background values.

[2] = system: RAW 264.7 cells; assay: as above; format: cell-based, murine; conditions: increasing concentrations of NBD-labelled peptide, 2 h at 37 °C, DMEM 10% FCS, FACS, average of three independent experiments
Description: as §1

[3] = system: RAW 264.7 cells; assay: Cell viability, CellTiter-Glo Luminescent Assay; format: cell-based, murine; conditions: RAW 264.7, 10, 40 and 160 μM peptide, incubation 2, 4, 8 and 18 h
Excerpt: CellTiter-Glo Luminescent Assay (Promega) was utilised to determine viability of RAW 264.7 cells following treatment with peptides, according to the manufacturer's instructions.

| Internalised peptide, mean cell fluorescence after sodium dithionite quencher [1] | Internalised peptide, mean cell fluorescence after sodium dithionite quencher [2] | SMILES | Cellular viability [3] |
| --- | --- | --- | --- |
| substantially less fluorescent | substantially less fluorescent | CSCC[C@H](NC(=O)[C@H](CCCCN)NC(=O)CNc1ccc([N+](=O)[O-])c2nonc12)C(=O)N[C@@H](C)C(=O)N[C@@H](CC(=O)O)C(=O)N[C@@H](Cc1c[nH]c2ccccc12)C(=O)N[C@@H](Cc1ccccc1)C(=O)N[C@@H](CCCNC(=N)N)C(=O)N[C@@H](CCC(N)=O)C(=O)N[C@H](C(=O)N[C@@H](CC(C)C)C(=O)N[C@@H](CC(C)C)C(=O)N[C@@H](C)C(=O)N[C@@H](C)C(=O)N1CCC[C@H]1C(=O)N[C@@H](C)C(=O)N[C@@H](C)C(=O)N[C@@H](C)C(=O)N1CCC[C@H]1C(=O)N[C@@H](CC(N)=O)C(=O)N[C@@H](CO)C(=O)N1CCC[C@H]1C(=O)N[C@@H](CCC(=O)O)C(=O)N[C@@H](CO)C(=O)N[C@H](C(N)=O)[C@@H](C)O)[C@@H](C)O [NBD-TIRAP^Ala] (H-[N(NBD)Gly]KMADWFRQTLLAAPAAAPNSPEST-NH2) | – |
| very little fluorescence | – | C[C@H](NC(=O)[C@H](C)NC(=O)[C@H](CCC(N)=O)NC(=O)[C@H](C)NC(=O)[C@H](C)NC(=O)[C@H](CCCCN)NC(=O)[C@H](CCCCN)NC(=O)[C@H](CCCNC(=N)N)NC(=O)CNc1ccc([N+](=O)[O-])c2nonc12)C(=O)N[C@@H](C)C(=O)N1CCC[C@H]1C(=O)N1CCC[C@H]1C(=O)N[C@@H](CCC(N)=O)C(N)=O [TAT^Ala, reference compound] (H-[N(NBD)Gly]RKKAAQAAAPPQ-NH2) | – |
| – | – | CC[C@H](C)[C@H](NC(=O)[C@H](C)NC(=O)CNC(=O)CNC(=O)[C@@H]1CCCN1C(=O)[C@@H](NC(=O)[C@H](C)NC(=O)[C@H](CC(=O)O)NC(=O)[C@H](CCCNC(=N)N)NC(=O)[C@H](CC(C)C)NC(=O)[C@H](CCC(N)=O)NC(=O)[C@H](CC(C)C)NC(=O)[C@@H](NC(=O)[C@H](CO)NC(=O)[C@H](CCC(=O)O)NC(=O)[C@@H]1CCCN1C(=O)[C@H](CO)NC(=O)[C@H](CC(N)=O)NC(=O)[C@@H]1CCCN1C(=O)[C@H](CCCNC(=N)N)NC(=O)[C@H](CCCCN)NC(=O)[C@H](CCCCN)NC(=O)[C@@H]1CCCN1C(=O)[C@H](CCCCN)NC(=O)[C@H](CCCCN)NC(=O)[C@H](CC(C)C)NC(=O)[C@H](CC(C)C)NC(=O)[C@@H](NC(=O)[C@H](CCC(N)=O)NC(=O)[C@H](CCCNC(=N)N)NC(=O)[C@H](Cc1ccccc1)NC(=O)[C@H](Cc1c[nH]c2ccccc12)NC(=O)[C@H](CC(=O)O)NC(=O)[C@H](C)NC(=O)[C@H](CCSC)NC(=O)[C@H](CCCCN)NC(=O)CN)[C@@H](C)O)[C@@H](C)O)[C@@H](C)O)C(=O)N[C@H](C(=O)N[C@@H](CO)C(N)=O)C(C)C [TBX2] (H-GKMADWFRQTLLKKPKKRPNSPESTLQLRDATPGGAIVS-NH2) | no significant reduction in cellular viability |
| cell permeable properties | cell permeable properties | CSCC[C@H](NC(=O)[C@H](CCCCN)NC(=O)CNc1ccc([N+](=O)[O-])c2nonc12)C(=O)N[C@@H](C)C(=O)N[C@@H](CC(=O)O)C(=O)N[C@@H](Cc1c[nH]c2ccccc12)C(=O)N[C@@H](Cc1ccccc1)C(=O)N[C@@H](CCCNC(=N)N)C(=O)N[C@@H](CCC(N)=O)C(=O)N[C@H](C(=O)N[C@@H](CC(C)C)C(=O)N[C@@H](CC(C)C)C(=O)N[C@@H](CCCCN)C(=O)N[C@@H](CCCCN)C(=O)N1CCC[C@H]1C(=O)N[C@@H](CCCCN)C(=O)N[C@@H](CCCCN)C(=O)N[C@@H](CCCNC(=N)N)C(=O)N1CCC[C@H]1C(=O)N[C@@H](CC(N)=O)C(=O)N[C@@H](CO)C(=O)N1CCC[C@H]1C(=O)N[C@@H](CCC(=O)O)C(=O)N[C@@H](CO)C(=O)N[C@H](C(N)=O)[C@@H](C)O)[C@@H](C)O [TIRAP] (H-[N(NBD)Gly]KMADWFRQTLLKKPKKRPNSPEST-NH2) | – |
